Measurements published in patent publication US9420781B1, “Agrochemical adjuvant concentrate for herbicides” (LAMBERTI SpA, priority 2015, dated 2016).

Legend:
Test in all cases: Herbicidal Effectiveness Test
Type in all cases: in vivo
Details in all cases: tank mix with Roundup PM 11 fl oz/a, Clarity 6 fl oz/a
AMASS Amaranth = tested on: AMASS Amaranth
Procedure: (§1) 4 diluted sprayable herbicide tank mixes were prepared using water with an hardness of 1000 ppm, 0.25% v/v of NIS and the adjuvant concentrates of Example 1 and 3-5.
(§2) For comparative purpose, two other diluted herbicide sprayable tank mixes with two different adjuvants, AMS and DPK 50, were prepared.
(§3) The formulations contained, as herbicides, Roundup® PM for an application rate of 11 fl oz/a (803 ml/h) and Clarity® for an application rate of 6 fl oz/a (438 ml/h).
(§4) The formulation were applied on a multispecies system.
(§5) The herbicidal performances were evaluated by awarding scores to the treated plants in comparison to untreated control plants. The evaluation scale ranges from 0% to 100% herbicidal activity. 100% activity means the complete death at least of those parts of the plant that are above ground.
(§6) The results 14 and 28 days after the treatment are reported in the following Table 3 and Table 4 respectively.

ZEAMX Corn = tested on: ZEAMX Corn
Procedure: as §1, §2, §3, §4, §5, §6

HELSS Sunflower = tested on: HELSS Sunflower
Procedure: as §1, §2, §3, §4, §5, §6

LIUSS Flax = tested on: LIUSS Flax
Procedure: as §1, §2, §3, §4, §5, §6

[1] = 14 days after treatment, adjuvant 8.5 lb/100 gal, 0.25% v/v NIS, water hardness 1000 ppm
[2] = 14 days after treatment, adjuvant 17 lb/100 gal, 0.25% v/v NIS, water hardness 1000 ppm
[3] = 28 days after treatment, adjuvant 8.5 lb/100 gal
[4] = 28 days after treatment, adjuvant 17 lb/100 gal

Structure (SMILES): N.N.O=S(=O)(O)O [AMS, ammonium sulfate]
- herbicidal activity, Amaranth (AMASS Amaranth; [1]): 75.3%
- herbicidal activity, Amaranth (AMASS Amaranth; [2]): 91%
- herbicidal activity, Amaranth (AMASS Amaranth; [3]): 79.3%
- herbicidal activity, Amaranth (AMASS Amaranth; [4]): 96%
- herbicidal activity, Corn (ZEAMX Corn; [1]): 95%
- herbicidal activity, Corn (ZEAMX Corn; [2]): 96.3%
- herbicidal activity, Corn (ZEAMX Corn; [3]): 95%
- herbicidal activity, Corn (ZEAMX Corn; [4]): 97%
- herbicidal activity, Sunflower (HELSS Sunflower; [1]): 81%
- herbicidal activity, Sunflower (HELSS Sunflower; [2]): 94.3%
- herbicidal activity, Sunflower (HELSS Sunflower; [3]): 91.7%
- herbicidal activity, Sunflower (HELSS Sunflower; [4]): 95%
- herbicidal activity, Flax (LIUSS Flax; [1]): 74.3%
- herbicidal activity, Flax (LIUSS Flax; [2]): 88.3%
- herbicidal activity, Flax (LIUSS Flax; [3]): 76%
- herbicidal activity, Flax (LIUSS Flax; [4]): 90%
